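96-well plates; 48 h exposure; 5 concentrations. Endpoints by linear interpolation between flanking doses. Not reached: highest tested concentration assigned. TGI: total growth inhibition.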
Key:
Test in all cases: NCI tumour cell line growth inhibition, 48 h
[1] = test system: HL-60(TB) leukemia
[2] = test system: EKVX NSCLC
[3] = test system: HT29 colon
[4] = test system: U251 CNS
[5] = test system: RXF-631 renal
[6] = test system: HCT-15 colon
[7] = test system: MOLT-4 leukemia
[8] = test system: XF 498 CNS
[9] = test system: SF-295 CNS
[10] = test system: HOP-18 NSCLC
[11] = test system: SK-OV-3 ovarian
[12] = test system: HOP-92 NSCLC
[13] = test system: OVCAR-4 ovarian
[14] = test system: M14 melanoma
[15] = test system: UACC-62 melanoma
[16] = test system: MALME-3M melanoma
[17] = test system: COLO 205 colon
[18] = test system: A549 NSCLC
[19] = test system: KM20L2 colon
[20] = test system: HCC-2998 colon
[21] = test system: ACHN renal
[22] = test system: SF-268 CNS
[23] = test system: NCI-H460 lung
[24] = test system: UO-31 renal
[25] = test system: OVCAR-3 ovarian
[26] = test system: SK-MEL-2 melanoma
[27] = test system: A498 renal
[28] = test system: SF-539 CNS
[29] = test system: M19-MEL melanoma
[30] = test system: CAKI-1 renal
[31] = test system: SN12C renal
[32] = test system: SNB-75 CNS
[33] = test system: SR leukemia
[34] = test system: KM12 colon
[35] = test system: OVCAR-8 ovarian
[36] = test system: DLD-1 colon
[37] = test system: HOP-62 NSCLC
[38] = test system: CCRF-CEM leukemia
[39] = test system: NCI-H226 lung
[40] = test system: IGROV1 ovarian
[41] = test system: SW-620 colon
[42] = test system: DMS 273 small cell lung
[43] = test system: SK-MEL-5 melanoma
[44] = test system: SK-MEL-28 melanoma
[45] = test system: SNB-19 CNS
[46] = test system: TK-10 renal
[47] = test system: SNB-78 CNS
[48] = test system: UACC-257 melanoma
[49] = test system: NCI-H23 lung
[50] = test system: RXF 393 renal
[51] = test system: LXFL 529 NSCLC
[52] = test system: DMS 114 small cell lung
[53] = test system: HCT-116 colon
[54] = test system: NCI-H522 lung
[55] = test system: 786-0 renal
[56] = test system: MCF7 breast
[57] = test system: OVCAR-5 ovarian
[58] = test system: NCI/ADR-RES ovarian
[59] = test system: P388/ADR leukemia
[60] = test system: RPMI-8226 leukemia
[61] = test system: SN12K1 renal
[62] = test system: K-562 leukemia
[63] = test system: LOX IMVI melanoma
[64] = test system: P388 leukemia

## Cc1ccc(C)c(N2C(=O)C(=O)C(c3nc4ccccc4s3)/C(=N/NC(=O)NN)C2=O)c1 (configuration not stated)
[1]
  TGI: > 100 µM
[2]
  TGI: > 100 µM
[3]
  TGI: > 100 µM
[4]
  TGI: > 100 µM
[5]
  TGI: > 100 µM
[6]
  TGI: > 100 µM
[7]
  TGI: > 100 µM
[8]
  TGI: > 100 µM
[9]
  TGI: > 100 µM
[10]
  TGI: > 100 µM
[11]
  TGI: > 100 µM
[12]
  TGI: > 100 µM
[13]
  TGI: > 100 µM
[14]
  TGI: > 100 µM
[15]
  TGI: > 100 µM
[16]
  TGI: > 100 µM
[17]
  TGI: > 100 µM
[18]
  TGI: > 100 µM
[19]
  TGI: > 100 µM
[20]
  TGI: > 100 µM
[21]
  TGI: > 100 µM
[22]
  TGI: > 100 µM
[23]
  TGI: > 100 µM
[24]
  TGI: > 100 µM
[25]
  TGI: > 100 µM
[26]
  TGI: > 100 µM
[27]
  TGI: > 100 µM
[28]
  TGI: > 100 µM
[29]
  TGI: > 100 µM
[30]
  TGI: > 100 µM
[31]
  TGI: > 100 µM
[32]
  TGI: > 100 µM
[33]
  TGI: > 100 µM
[34]
  TGI: > 100 µM
[35]
  TGI: > 100 µM
[36]
  TGI: > 100 µM
[37]
  TGI: > 100 µM
[38]
  TGI: > 100 µM
[39]
  TGI: > 100 µM
[40]
  TGI: > 100 µM
[41]
  TGI: > 100 µM
[42]
  TGI: > 100 µM
[43]
  TGI: > 100 µM
[44]
  TGI: > 100 µM
[45]
  TGI: > 100 µM
[46]
  TGI: > 100 µM
[47]
  TGI: > 100 µM
[48]
  TGI: > 100 µM
[49]
  TGI: > 100 µM
[50]
  TGI: > 100 µM
[51]
  TGI: > 100 µM
[52]
  TGI: > 100 µM
[53]
  TGI: > 100 µM
[54]
  TGI: > 100 µM
[55]
  TGI: > 100 µM

## Cn1c(-c2ccccc2)cc(-c2cccs2)c1-c1cccs1
[1]
  TGI: > 100 µM
[2]
  TGI: > 100 µM
[56]
  TGI: > 100 µM
[3]
  TGI: > 100 µM
[4]
  TGI: > 100 µM
[57]
  TGI: > 100 µM
[6]
  TGI: > 100 µM
[7]
  TGI: > 100 µM
[8]
  TGI: > 100 µM
[9]
  TGI: > 100 µM
[58]
  TGI: > 100 µM
[10]
  TGI: > 100 µM
[11]
  TGI: > 100 µM
[12]
  TGI: > 100 µM
[13]
  TGI: > 100 µM
[15]
  TGI: > 100 µM
[16]
  TGI: > 100 µM
[17]
  TGI: > 100 µM
[18]
  TGI: > 100 µM
[19]
  TGI: > 100 µM
[20]
  TGI: > 100 µM
[22]
  TGI: > 100 µM
[23]
  TGI: > 100 µM
[24]
  TGI: > 100 µM
[59]
  TGI: > 100 µM
[25]
  TGI: > 100 µM
[26]
  TGI: > 100 µM
[60]
  TGI: > 100 µM
[27]
  TGI: > 100 µM
[28]
  TGI: > 100 µM
[29]
  TGI: > 100 µM
[30]
  TGI: > 100 µM
[31]
  TGI: > 100 µM
[32]
  TGI: > 100 µM
[34]
  TGI: > 44.9 µM
[35]
  TGI: > 100 µM
[36]
  TGI: > 100 µM
[61]
  TGI: > 41.9 µM
[37]
  TGI: > 100 µM
[62]
  TGI: > 100 µM
[38]
  TGI: > 100 µM
[39]
  TGI: > 100 µM
[40]
  TGI: > 100 µM
[41]
  TGI: > 100 µM
[63]
  TGI: > 100 µM
[42]
  TGI: > 100 µM
[43]
  TGI: > 100 µM
[44]
  TGI: > 100 µM
[45]
  TGI: > 100 µM
[64]
  TGI: > 100 µM
[47]
  TGI: > 100 µM
[48]
  TGI: > 51 µM
[49]
  TGI: > 100 µM
[50]
  TGI: > 100 µM
[52]
  TGI: > 100 µM
[53]
  TGI: > 100 µM
[54]
  TGI: > 100 µM
